Measured values reported in ChEMBL document CHEMBL5226376, “A Streptomyces Cytochrome P450 Enzyme Catalyzes Regiospecific C2-Guaninylation for the Synthesis of Diverse Guanitrypmycin Analogs” (J Nat Prod, 2023).
The source made the active and inactive calls.

Legend:
Type in all cases: functional, organism-based
[1] = tested on: Niallia circulans; assay: Antibacterial activity against Bacillus circulans NRRLB-380 assessed as inhibition of bacterial growth incubated for overnight by disk diffusion method
[2] = tested on: Escherichia coli; assay: Antibacterial activity against Escherichia coli ATCC 25922 assessed as inhibition of bacterial growth incubated for overnight by disk diffusion method
[3] = tested on: Staphylococcus aureus; assay: Antibacterial activity against Staphylococcus aureus ATCC 29213 assessed as inhibition of bacterial growth incubated for overnight by disk diffusion method
[4] = tested on: Pseudomonas aeruginosa; assay: Antibacterial activity against Pseudomonas aeruginosa ATCC 27853 assessed as inhibition of bacterial growth incubated for overnight by disk diffusion method
[5] = tested on: Bacillus subtilis; assay: Antibacterial activity against Bacillus subtilis BSB01 assessed as inhibition of bacterial growth incubated for overnight by disk diffusion method
[6] = tested on: Enterococcus faecalis; assay: Antibacterial activity against Enterococcus faecalis DSM2570 assessed as inhibition of bacterial growth incubated for overnight by disk diffusion method
[7] = tested on: Niallia circulans; assay: Antibacterial activity against Bacillus circulans NRRLB-14032 assessed as inhibition of bacterial growth incubated for overnight by disk diffusion method
[8] = tested on: Bacillus subtilis; assay: Antibacterial activity against Bacillus subtilis NCIB3610 assessed as inhibition of bacterial growth incubated for overnight by disk diffusion method
[9] = tested on: Klebsiella pneumoniae; assay: Antibacterial activity against Klebsiella pneumoniae DSM26371 assessed as inhibition of bacterial growth incubated for overnight by disk diffusion method
[10] = tested on: Niallia circulans; assay: Antibacterial activity against Bacillus circulans NRRLNRS-1108 assessed as inhibition of bacterial growth incubated for overnight by disk diffusion method
[11] = tested on: Staphylococcus delphini; assay: Antibacterial activity against Staphylococcus delphini DSM20771 assessed as inhibition of bacterial growth incubated for overnight by disk diffusion method
[12] = tested on: Escherichia coli; assay: Antibacterial activity against Escherichia coli DH5alpha assessed as inhibition of bacterial growth incubated for overnight by disk diffusion method

Measured: Activity

Nc1nc2[nH]c(-c3[nH]c4ccccc4c3C[C@@H]3NC(=O)/C(=C/c4ccccc4)NC3=O)nc2c(=O)[nH]1
inactive: all assays above

Nc1nc2[nH]c(-c3[nH]c4ccccc4c3C[C@@H]3NC(=O)[C@H](Cc4c[nH]c5ccccc45)NC3=O)nc2c(=O)[nH]1
inactive: all assays above

Nc1nc2[nH]c(-c3[nH]c4ccccc4c3C[C@@H]3NC(=O)[C@H](Cc4ccc(O)cc4)NC3=O)nc2c(=O)[nH]1
inactive: all assays above

Nc1nc2[nH]c(-c3[nH]c4ccccc4c3C[C@@H]3NC(=O)[C@H](Cc4ccccc4)NC3=O)nc2c(=O)[nH]1
inactive: all assays above

Nc1nc2[nH]c(-c3[nH]c4ccccc4c3C[C@@H]3NC(=O)/C(=C/c4ccc(O)cc4)NC3=O)nc2c(=O)[nH]1
inactive: all assays above
